Results reported in patent US6080771A, “DC107 derivatives” (Kyowa Hakko Kogyo Co., Ltd., priority 1996, dated 2000).
In brackets after ≈: the same amount, converted by molar mass. Where two headings read alike, the source gives them in different places.

Key:
[1] = test system: Sarcoma 180 mouse solid tumor; assay: Antitumor activity against Sarcoma 180 mouse solid tumor; assay type: in vivo, male ddY mice; details: Sarcoma-180, iv, 168 h, single i.v., tumor volume on day 7 from transplant, read-out: T/C (tumor volume ratio treated/control)
Protocol: To a ddY mouse were intraperitoneally transplanted 5×10^6 sarcoma 180 cells. On the seventh day from the transplant, the cells were collected from the ascites, washed once with sterilized physiological saline, and then diluted with sterilized physiological saline to prepare a cell suspension having a concentration of 5×10^7 cells/mL. This suspension was transplanted in an amount of 0.01 mL to a subcutaneous part of the right axilla of each of male ddY mice each weighing 20±1 g.
A test compound was dissolved in physiological saline containing polyoxyethylene sorbitan monolaurate. At 24 hours after the tumor transplant, 0.2 mL of the solution was intravenously administered to the tail of each of a group of five mice.

[2] = test system: Enterococcus hirae ATCC 10541; assay: Antimicrobial activity, agar dilution method (MIC), EH; details: pH 7
Protocol: Antimicrobial activity was determined by the agar dilution method using a culture medium (pH 7) prepared by dissolving 3 g of Bacto-Tryptone (manufactured by Difco, Co.), 3 g of meat extract, 1 g of yeast extract, 1 g of glucose, and 16 g of agar in 1 l of water.
EH: Enterococcus hirae ATCC 10541

[3] = test system: Staphylococcus aureus ATCC 6538P; assay: Antimicrobial activity, agar dilution method (MIC), SA; assay type: cell-based; details: ATCC6538P, pH 7, read-out: MIC, SA
Description: | SA: Staphylococcus aureus ATCC 6538P

HeLa S3 cells = assay: HeLa S3 cell growth inhibition test (Neutral Red); assay type: cell-based; details: Homo sapiens, read-out: HeLa S3 Cell Growth Inhibition Activity, IC50
Protocol: In each well of a 96-well microtiter plate was placed 0.1 mL of HeLa S3 cells having a concentration of 8×10^3 cells/mL and prepared in an MEM culture medium containing 10% fetal bovine serum and 2 mM glutamine. After the cells were incubated overnight at 37° C. in a carbon dioxide incubator, a test compound suitably diluted with a medium was added to the wells in an amount of 0.05 mL for each well. The cells were incubated at 37° C. for 72 hours in a carbon dioxide incubator. After the culture supernatant was removed, 0.1 mL of a culture medium containing 0.02% Neutral Red was added to each well. The cells were then incubated at 37° C. for 1 hour in a carbon dioxide incubator to dye the cells. After the culture supernatant was removed, each residue was rinsed once with physiological saline and the pigment was extracted with 0.001N hydrochloric acid/30% ethanol. The absorbance at 550 nm of each extract was measured with a microplate reader. The drug concentration required for the 50% inhibition of cell growth, which is referred to as IC50, was calculated by comparing the absorbance for untreated cells with those for cells treated with the drug in known concentrations.

[4] = test system: Klebisiella pneumoniae ATCC 10031; assay: Antimicrobial activity, agar dilution method (MIC), KP; assay type: cell-based
Description: | KP: Klebisiella pneumoniae ATCC 10031

Escherichia coli ATCC 26 = assay: Antimicrobial activity, agar dilution method (MIC), EC; assay type: cell-based; details: ATCC26, pH 7, read-out: MIC, EC
Description: | EC: Escherichia coli ATCC 26

[5] = test system: Bacillus substilis NO. 10707; assay: Antimicrobial activity, agar dilution method (MIC), BS; assay type: cell-based
Description: | BS: Bacillus substilis NO. 10707

[6] = agar dilution, pH 7, read-out: MIC, KP
[7] = NO.10707, agar dilution, pH 7, read-out: MIC, BS

SMILES | response vs control in vivo at 8 mg/kg [1] [%] | MIC, EH [2] [µg/mL] | MIC ([3]; agar dilution) [µg/mL] | MIC [4, 6] [µg/mL] | MIC (Escherichia coli ATCC 26) [µg/mL] | MIC [5, 7] [µg/mL] | further results
COCCOCCOCCOCCOCCOCC(=O)OC1/C=C(\C)CCC2(CC(=O)NC(C)c3nc(cs3)/C=C\C=C\C1=O)[S+]([O-])SC(=O)C2(C)O (centres unmarked) [Compound 5] | 30 | 0.20 (≈ 0.249 µM) | 0.4 (≈ 0.498 µM) | 0.39 (≈ 0.486 µM) | 3.1 (≈ 3.86 µM) | 0.2 (≈ 0.249 µM) | IC50 (HeLa S3 cells; HeLa S3, 72 h): 67 nM
C/C1=C\C(OC(=O)COCCOCCO)C(=O)/C=C/C=C\c2csc(n2)C(C)NC(=O)CC2(CC1)[S+]([O-])SC(=O)C2(C)O (centres unmarked) [Compound 8] |  | 0.13 (≈ 0.198 µM) | 0.13 (≈ 0.198 µM) | 0.13 (≈ 0.198 µM) | 2.1 (≈ 3.2 µM) | 0.13 (≈ 0.198 µM) | response vs control in vivo at 4 mg/kg [1]: 36%
COCCOCCOC(C)(C)C(=O)OC1/C=C(\C)CCC2(CC(=O)NC(C)c3nc(cs3)/C=C\C=C\C1=O)[S+]([O-])SC(=O)C2(C)O (centres unmarked) [Compound 10] |  | 0.081 (≈ 0.116 µM) | 0.081 (≈ 0.116 µM) | 0.65 (≈ 0.93 µM) | 0.65 (≈ 0.93 µM) | 0.041 (≈ 0.0587 µM) | 
COCCOCC(=O)OC1/C=C(\C)CCC2(C(C)(O)C(=O)SCc3oc(=O)oc3C)CC(=O)N(C(C)c3nc(cs3)/C=C\C=C\C1=O)[S+]2[O-] (centres unmarked) [Compound 11] |  |  |  |  |  |  | IC50 (HeLa S3 cells; HeLa S3, 72 hours, 37° C.): 30 nM
COCCOCCOCCOCC(=O)OC1/C=C(\C)CCC2(C(C)(O)C(=O)SCc3oc(=O)oc3C)CC(=O)N(C(C)c3nc(cs3)/C=C\C=C\C1=O)[S+]2[O-] (centres unmarked) [Compound 13] | 39 |  |  |  |  |  | 
C/C1=C\C(OC(=O)COCCOCCO)C(=O)/C=C/C=C\c2csc(n2)C(C)N2C(=O)CC(C(C)(O)C(=O)SCc3oc(=O)oc3C)(CC1)[S+]2[O-] (centres unmarked) [Compound 17] | 37 | 1.8 (≈ 2.34 µM) |  |  |  |  | MIC [3]: 1.8 µg/mL (≈ 2.34 µM); MIC ([4]; pH 7, read-out: MIC, KP): 1.8 µg/mL (≈ 2.34 µM); MIC ([5]; NO.10707, pH 7, read-out: MIC, BS): 1.82 µg/mL (≈ 2.37 µM)
COCCOCCOCCOCCOCCOCC(=O)OC1/C=C(\C)CCC2(C(C)(O)C(=O)SCC3=C(C)OC(C)(C)OC3=O)CC(=O)N(C(C)c3nc(cs3)/C=C\C=C\C1=O)[S+]2[O-] (centres unmarked) [Compound 21] |  |  |  |  |  |  | response vs control in vivo at 16 mg/kg ([1]; 16 mg/kg): 45%
COCCOCCOCC(=O)OC1/C=C(\C)CCC2(C(C)(O)C(=O)SCOC(=O)CC[C@H](NC(=O)OC(C)(C)C)C(=O)OC(C)(C)C)CC(=O)N(C(C)c3nc(cs3)/C=C\C=C\C1=O)[S+]2[O-] (some centres unmarked) [Compound 23] | 48 |  |  |  |  |  | IC50 (HeLa S3 cells; HeLa S3, 72 hours, 37° C.): 43 nM
COCCOCCOCCOCCOCCOCC(=O)OC1/C=C(\C)CCC2(C(C)(O)C(=O)SCOC(=O)CNC(=O)OC(C)(C)C)CC(=O)N(C(C)c3nc(cs3)/C=C\C=C\C1=O)[S+]2[O-] (centres unmarked) [Compound 24] |  |  |  |  |  |  | IC50 (HeLa S3 cells; HeLa S3, 72 hours, 37° C.): 21 nM
C/C1=C\C(OC(=O)COCCOCCOCCOCCO)C(=O)/C=C/C=C\c2csc(n2)C(C)NC(=O)CC2(CC1)[S+]([O-])SC(=O)C2(C)O (centres unmarked) [Compound 27] | 18 | 0.065 (≈ 0.0873 µM) | 0.13 (≈ 0.175 µM) | 0.065 (≈ 0.0873 µM) | 16.7 (≈ 22.4 µM) | 0.13 (≈ 0.175 µM) | 
COCCOCCOCC(=O)OC1/C=C(\C)CCC2(C(C)(O)C(=O)SCOC(=O)CC[C@H](NC(=O)[C@@]34O[C@H]5COC(C)(C)O[C@H]5[C@@H]3OC(C)(C)O4)C(=O)OC)CC(=O)N(C(C)c3nc(cs3)/C=C\C=C\C1=O)[S+]2[O-] (some centres unmarked) [Compound 28] | 31 |  |  |  |  |  | 
COCCOCCOCC(=O)OC1/C=C(\C)CCC2(C(C)(O)C(=O)SCOC(=O)CC[C@H](NC(=O)C3(C)COC(C)(C)OC3)C(=O)OC)CC(=O)N(C(C)c3nc(cs3)/C=C\C=C\C1=O)[S+]2[O-] (some centres unmarked) [Compound 29] | 47 |  |  |  |  |  | 
COCCOCCOCC(=O)OCCOCCOCC(=O)OC1/C=C(\C)CCC2(CC(=O)NC(C)c3nc(cs3)/C=C\C=C\C1=O)[S+]([O-])SC(=O)C2(C)O (centres unmarked) [Compound 30] |  |  |  |  |  |  | response vs control in vivo at 4 mg/kg [1]: 43%
